Results on 14 molecules are retold here after US20240239794A1, “PKC-Theta Modulators” (Exscientia AI Limited, priority 2021, published 2024).

Counter-ions that a name gives are not always drawn. Like-named read-outs stand apart in the source and are kept apart here.

The subject of test [1] is IL-2 secretion by human effector memory T cells (TEM). The test can be described thus: Effector memory T cells IL-2 release assay. It counts as cell-based. The following applies: T-cell, 24 h. The protocol: Test compound-mediated inhibition of NFκB signalling in T cells was assessed by quantification of the IL-2 secretion by human effector memory T cells (TEM) upon treatment and stimulation. Human TEM cells were isolated from buffy coats of healthy donors obtained from the French blood bank. First, peripheral blood mononuclear cells (PBMC) were purified from buffy coats diluted 1:1 with DPBS (Gibco, cat #14190-094) by Pancoll (PAN BIOTECH, cat #P04-60500) density gradient centrifugation at 400×g for 20 minutes. TEM cells were further enriched by negative immuno-magnetic cell sorting using a human CD4+ Effector Memory T Cell Isolation Kit (Miltenyi, cat #130-094-125) according to the manufacturer's instructions. Aliquots of 3×10E6 purified TEM cells were kept frozen in Cryo-SFM medium (PromoCell, cat #C-29912) in gas phase nitrogen until used. Cell purity was verified by flow cytometry analysis of 200 000 PFA-fixed cells previously labelled with monoclonal antibodies anti-CD4-PerCP-Cy5.5 (BD Pharmigen, cat #332772), anti-CD8-V500 (BD Biosciences, cat #561617), anti-CD14-Pacific Blue (Biolegend, cat #325616), anti-CD45 RA-FITC (Biolegend, cat #304106) and anti-CCR7-APC (in CD4+ Effector Memory T Cell Isolation Kit, Miltenyi, cat #130-094-125).
TEM cells were resuspended in complete RPMI medium composed of: RPMI 1640 (Gibco, cat #31870-025), 10% heat inactivated fetal bovine serum (Sigma, cat #F7524), 2 mM GlutaMAX (Gibco, cat #35050-038), 1 mM sodium pyruvate 100× (Gibco, cat #11360-039), 1% MEM non-essential amino acids solution (Gibco, cat #11140-035) and 100 U/mL penicillin, 100 µg/mL streptomycin (Sigma-Aldrich, cat #11074440001). 5,000 cells per well were plated onto flat clear bottom 384 well plates (Corning, cat #3770). 5,000 Dynabeads Human T-Activator CD3/CD28 (Gibco, cat #11132D) were added to each well for cell stimulation. Finally, 10 doses of test compound, originally prepared in DMSO by serial semi-log step dilution, were also added to cells in triplicate wells. Final DMSO concentration in wells was 0.1% in a total volume of 100 µL complete medium. Plates were incubated for 24 h at 37° C. in 5% CO2 atmosphere. After incubation, cell suspensions were centrifuged at 400×g and culture supernatants were recovered and stored at −80° C. Cell viability was assessed by flow cytometry after staining the cells with Fixable Viability Dye eFluor 780 (Invitrogen, cat #65-0865-14). IL-2 levels were determined in cell supernatants using an HTRF human IL-2 detection kit (Cisbio, cat #62HIL02PEH). IL-2 data at the different compound doses were fitted to a 4-parameter logistic curve to determine IC50 values, corresponding to the compound concentration leading to 50% reduction of the maximal IL-2 levels observed in each experiment. Viability data were analysed similarly to exclude cytotoxicity as a cause of IL-2 decrease (see Table 1).

The target in test [2] is Recombinant human PKC-delta (His-tagged 345-676) (Homo sapiens (Human), UniProt Q05655). The test can be described thus: PKC-delta inhibition assay (HTRF KinEASE kit), PKC-theta/PKC-delta selectivity. The test is classed as biochemical. The following applies: ratio; for PKC-theta/PKC-delta selectivity: PKC-theta over PKC-delta, HTRF assays; for PKC-theta/PKC-delta selectivity (binned): binned A to G. The protocol:
(§1) PKC-theta and PKC-delta biochemical activities were measured using the PKC-theta HTRF KinEASEkit kit, according to manufacturer's instructions (Cisbio, catalogue number 61ST1PEJ). Briefly, the kinase buffer component of the kit was supplemented with 10 mM MgCl2, 1 mM DTT and 0.1% Tween 20. For the PKC-theta assay, STK substrate and ATP were added to provide a final assay concentration of 525 nM and 6.5 μM, respectively. For the PKC-delta assay, STK substrate and ATP were added to provide a final assay concentration of 243 nM and 5.7 μM, respectively. The streptavidin_XL665 and STK antibody-cryptate detection reagents were mixed according to the manufacturer's instructions. Test compounds were diluted in DMSO in a series of 10 semi-log step doses; 10 nL of each compound dose were dispensed in 384 well plates. Recombinant human PKC-theta (His-tagged 362-706) or PKC-delta (His-tagged 345-676) was diluted into kinase buffer to provide a final assay concentration of 10 ng/ml and added to the test compound for 30 minutes on ice. The reaction was started by addition of the substrate and ATP and incubated at 25° C. for 30 minutes or 20 minutes for the PKC-theta and PKC-delta assays, respectively. The detection reagents were added, and the plate was incubated in the dark for 2 hours. Fluorescence was measured on an Envision 2103 plate reader with optical setup for […] in the HTRF mode. The ratio of acceptor and donor emission signals was calculated for each well. Percent inhibition values were calculated from the HTRF ratios at different doses and fitted to a 4-parameter logistic curve to determine IC50 values (see Table 1).

In test [3] the target is Recombinant human PKC-theta (His-tagged 362-706) (Homo sapiens (Human), UniProt Q04759). Put plainly: PKC-theta inhibition assay (HTRF KinEASE kit). Conditions: ATP 6.5 μM. The test is classed as biochemical. The protocol: as §1
Chain of Recombinant human PKC-theta (His-tagged 362-706) (Q04759 362-706): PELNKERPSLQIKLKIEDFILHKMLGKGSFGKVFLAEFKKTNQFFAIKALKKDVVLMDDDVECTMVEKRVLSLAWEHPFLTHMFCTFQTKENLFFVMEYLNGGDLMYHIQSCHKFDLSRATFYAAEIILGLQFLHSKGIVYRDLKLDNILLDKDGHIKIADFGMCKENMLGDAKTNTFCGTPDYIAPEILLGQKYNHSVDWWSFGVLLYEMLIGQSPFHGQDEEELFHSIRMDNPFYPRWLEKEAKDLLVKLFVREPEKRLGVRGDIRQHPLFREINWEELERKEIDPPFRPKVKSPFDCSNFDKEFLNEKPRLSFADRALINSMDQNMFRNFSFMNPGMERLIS
Setting [4] is: human CD4+ TEM cells, CD3/CD28 bead stimulation, binned A to G, read-out: PKC-theta IL2 pIC50 (binned) (converted).
Setting [5] is: human CD4+ TEM cells, CD3/CD28 bead stimulation, read-out: PKC-theta IL2 pIC50 (converted).
Where [6] appears, read: binned A to H, read-out: PKC-theta HTRF pIC50 (binned) (converted).
The mark [7] stands for this setting: read-out: PKC-theta HTRF pIC50 (converted).

Chain of Recombinant human PKC-delta (His-tagged 345-676) (Q05655 345-676): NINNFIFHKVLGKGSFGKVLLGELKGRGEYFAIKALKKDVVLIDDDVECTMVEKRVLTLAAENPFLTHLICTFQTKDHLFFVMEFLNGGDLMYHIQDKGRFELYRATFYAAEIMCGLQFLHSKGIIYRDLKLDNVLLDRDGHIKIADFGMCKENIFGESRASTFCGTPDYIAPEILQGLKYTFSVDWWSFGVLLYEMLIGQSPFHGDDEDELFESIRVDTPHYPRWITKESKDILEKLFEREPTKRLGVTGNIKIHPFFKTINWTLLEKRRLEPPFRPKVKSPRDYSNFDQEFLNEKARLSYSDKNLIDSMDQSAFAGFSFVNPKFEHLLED

Take `CC1(C)C(=O)Nc2nccc(-c3nn(C[C@@]4(C)COCCN4)c4ccccc34)c21` (single isomer, unassigned) [Example 31]: the values for the IC50 in test [1] (setting [4]), in test [1] (setting [5]) and in test [3] (setting [6]) were 31.6 to 100 nM, 39.8 nM and 1 to 3.16 nM, respectively. For the same molecule, in test [2], the PKC-theta/PKC-delta selectivity was determined as 22. The “PKC-theta/PKC-delta selectivity (binned)” value in test [2] was “C (C means a ratio of between 20 and 30)”. The “PKC-theta HTRF pIC50” value in test [3] came out at 8.9.

With `CCC1(O)C(=O)Nc2nccc(-c3nn([C@@H]4CCNC[C@@H]4F)c4ccccc34)c21` (stereo partly drawn) [Example 56], the IC50 was 31.6 to 100 nM in test [1] (setting [4]), 50.1 nM in test [1] (setting [5]) and 1 to 3.16 nM in test [3] (setting [6]). In addition, the PKC-theta/PKC-delta selectivity in test [2] came to 15. For the same molecule, the “PKC-theta/PKC-delta selectivity (binned)” value in test [2] is “D (D means a ratio of between 10 and 20)”. Further, the “PKC-theta HTRF pIC50” value in test [3] was determined as 8.7.

On to `CC1(C)C(=O)Nc2nccc(-c3nn([C@H]4CCNC4)c4cc(F)ccc34)c21` [Example 70], for which the results for the IC50 in test [1] (setting [4]), in test [1] (setting [5]) and in test [3] (setting [6]) were 100 to 316 nM, 126 nM and 3.16 to 10 nM, respectively. Further, the PKC-theta/PKC-delta selectivity in test [2] was determined as 20. Also, the “PKC-theta/PKC-delta selectivity (binned)” value in test [2] is “C (C means a ratio of between 20 and 30)”. In addition, in test [3], the “PKC-theta HTRF pIC50” value is reported as 8.1.

As to `CC[C@]1(C)C(=O)Nc2nccc(-c3nn([C@H]4CCNC[C@H]4F)c4ccc(F)cc34)c21` (single isomer, unassigned) [Example 100], the IC50 was 31.6 to 100 nM in test [1] (setting [4]), 100 nM in test [1] (setting [5]), 3.16 to 10 nM in test [3] (setting [6]) and 7.94 nM in test [3] (setting [7]). Further, the PKC-theta/PKC-delta selectivity in test [2] is given as 29. The “PKC-theta/PKC-delta selectivity (binned)” value in test [2] was “C (C means a ratio of between 20 and 30)”.

For the molecule `CC1(C)C(=O)Nc2nccc(-c3nn([C@H]4CCNC4)c4c(F)cccc34)c21` [Example 72], the values for the IC50 in test [1] (setting [4]), in test [1] (setting [5]) and in test [3] (setting [6]) were 100 to 316 nM, 200 nM and 10 to 31.6 nM, respectively. Besides, in test [2], the PKC-theta/PKC-delta selectivity turned out to be 20. For the same molecule, the “PKC-theta/PKC-delta selectivity (binned)” value in test [2] is “D (D means a ratio of between 10 and 20)”. The “PKC-theta HTRF pIC50” value in test [3] came to 7.9.

Take `CC1(C)C(=O)Nc2nccc(-c3nn(C[C@]4(C)COCCN4)c4ccccc34)c21` [Example 109]: the results for the IC50 in test [1] (setting [4]), in test [1] (setting [5]) and in test [3] (setting [6]) were 316 to 1000 nM, 501 nM and 10 to 31.6 nM, respectively. The PKC-theta/PKC-delta selectivity in test [2] was 11. Moreover, the “PKC-theta/PKC-delta selectivity (binned)” value in test [2] was “D (D means a ratio of between 10 and 20)”. Besides, the “PKC-theta HTRF pIC50” value in test [3] was 7.7.

Regarding `CC1(C)C(=O)Nc2nccc(-c3ccn(C4CCNCC4)n3)c21` [Example 8, 3,3-dimethyl-4-[1-(4-piperidyl)pyrazol-3-yl]-1H-pyrrolo[2,3-b]pyridin-2-one Dihydrochloride], the IC50 was 100 to 316 nM in test [1] (Homo sapiens, read-out: PKC-theta IL2 pIC50 (binned) (converted)); 126 nM in test [1] (Homo sapiens, read-out: PKC-theta IL2 pIC50 (converted)); 3.16 to 10 nM in test [3] (setting [6]). Moreover, the PKC-theta/PKC-delta selectivity in test [2] is recorded as 5. Besides, the “PKC-theta/PKC-delta selectivity (binned)” value in test [2] is “E (E means a ratio of between 5 and 10)”. In addition, the “PKC-theta HTRF pIC50” value in test [3] is given as 8.1.

For `C[C@]1(O)C(=O)Nc2nccc(-c3nn(C4CCNCC4)c4ccccc34)c21` (single isomer, unassigned) [Example 28], the IC50 in test [1] (setting [4]) is 10 to 31.6 nM; in test [1] (setting [5]) it was 31.6 nM; in test [3] (setting [6]) it was 1 to 3.16 nM; in test [3] (setting [7]), 2 nM. Also, in test [2], the PKC-theta/PKC-delta selectivity came out at 15. Also, the “PKC-theta/PKC-delta selectivity (binned)” value in test [2] was “D (D means a ratio of between 10 and 20)”.

Consider `CC1(O)C(=O)Nc2nccc(-c3cn(C4(CC#N)CCC4)c4ccccc34)c21` (stereo not drawn) [Example 24], for which the IC50 in test [1] (setting [4]) is 31.6 to 100 nM; in test [1] (setting [5]), 63.1 nM; in test [3] (setting [6]) it was 3.16 to 10 nM. Besides, the PKC-theta/PKC-delta selectivity in test [2] turned out to be 9. In addition, the “PKC-theta/PKC-delta selectivity (binned)” value in test [2] is “E (E means a ratio of between 5 and 10)”. The “PKC-theta HTRF pIC50” value in test [3] is reported as 8.4.

`CC1(C)C(=O)Nc2nccc(-c3nn([C@@H]4CCCNC4)c4ccccc34)c21` [Example 19]: the IC50 in test [1] (setting [4]) is 31.6 to 100 nM; in test [1] (setting [5]) it was 50.1 nM; in test [3] (setting [6]), 3.16 to 10 nM. The PKC-theta/PKC-delta selectivity in test [2] is 9. For the same molecule, the “PKC-theta/PKC-delta selectivity (binned)” value in test [2] is “E (E means a ratio of between 5 and 10)”. Further, in test [3], the “PKC-theta HTRF pIC50” value was 8.4.

Take `CC[C@@]1(C)C(=O)Nc2nccc(-c3nn([C@H]4CCNC[C@H]4F)c4cc(F)ccc34)c21` (single isomer, unassigned) [Example 104]: the IC50 in test [1] (setting [4]) was 10 to 31.6 nM; in test [1] (setting [5]) it was 12.6 nM; in test [3] (setting [6]), at most 1 nM; in test [3] (setting [7]) it was 0.794 nM. For the same molecule, the PKC-theta/PKC-delta selectivity in test [2] came out at 17. Moreover, the “PKC-theta/PKC-delta selectivity (binned)” value in test [2] was “D (D means a ratio of between 10 and 20)”.

On to `CC1(O)C(=O)Nc2nccc(-c3cn(C4CCNCC4)c4ccccc34)c21` (stereo not drawn) [Example 12], for which the values for the IC50 in test [1] (setting [4]), in test [1] (setting [5]) and in test [3] (setting [6]) were 100 to 316 nM, 200 nM and 3.16 to 10 nM, respectively. Further, in test [2], the PKC-theta/PKC-delta selectivity is 11. For the same molecule, in test [2], the “PKC-theta/PKC-delta selectivity (binned)” value is “D (D means a ratio of between 10 and 20)”. Also, in test [3], the “PKC-theta HTRF pIC50” value is 8.1.

In the case of `CC[C@]1(O)C(=O)Nc2nccc(-c3nn([C@@H]4CCNC[C@@H]4F)c4ccccc34)c21` (single isomer, unassigned) [Example 85], the IC50 in test [1] (setting [4]) was over 1000 nM; in test [1] (setting [5]) it was 1260 nM; in test [3] (setting [6]), 31.6 to 100 nM; in test [3] (setting [7]), 50.1 nM. Moreover, in test [2], the PKC-theta/PKC-delta selectivity is reported as 10. In addition, in test [2], the “PKC-theta/PKC-delta selectivity (binned)” value is “E (E means a ratio of between 5 and 10)”.

Regarding `CO[C@@]1(C)C(=O)Nc2nccc(-c3nn(C4(CC#N)CCC4)c4ccccc34)c21` (single isomer, unassigned) [Example 80], the IC50 in test [1] (setting [4]) is 10 to 31.6 nM; in test [1] (setting [5]) it was 20 nM; in test [3] (setting [6]), at most 1 nM; in test [3] (setting [7]), 0.794 nM. In addition, the PKC-theta/PKC-delta selectivity in test [2] was 9. In test [2], the “PKC-theta/PKC-delta selectivity (binned)” value was “E (E means a ratio of between 5 and 10)”.
